# Assay results from PMC6832352, “Synthesis and Glycosidase Inhibition of Broussonetine M and Its Analogues” (Molecules, 2019).
# Columns and labels:
# Format in all cases: biochemical
# [1] = target: T1, α-Glucosidase (Saccharomyces cerevisiae, UniProt P53341); test: glycosidase inhibition assay, yeast α-glucosidase; settings: for IC50: α-Glucosidase, Yeast
# T1 construct: purchased Sigma-Aldrich Chemical Co
# Protocol: (§1) With rat intestinal maltase as an exception, other enzymes were purchased from Sigma-Aldrich Chemical Co. (St. Louis, Mo. USA). Brush border membranes prepared from rat small intestine according to the method of Kessler et al. were assayed at pH 6.8 for rat intestinal maltase using maltose. The released D-glucose was determined colorimetrically using the Glucose CII-test Wako (Wako Pure Chemical Ind.; Osaka, Japan). Other glycosidase activities were determined using an appropriate p-nitrophenyl glycoside as substrate in a buffer solution at the optimal pH value of each enzyme. The reaction was stopped by adding 400 mM Na2CO3. The released p-nitrophenol was measured spectrometrically at 400 nm.
# [2] = target: β-Glucosidase; test: glycosidase inhibition assay, almond β-glucosidase; settings: for inhibition %: at 100 μM
# Protocol: as §1
# [3] = target: T2, α-Galactosidase (Coffea arabica, UniProt Q42656); test: glycosidase inhibition assay, coffee beans α-galactosidase; settings: for IC50: α-Galactosidase, Coffee beans
# T2 construct: purchased Sigma-Aldrich Chemical Co
# Protocol: as §1
# [4] = target: T3, α,α-Trehalase (Sus scrofa, UniProt I3LIR5); test: glycosidase inhibition assay, porcine kidney α,α-trehalase
# T3 sequence (I3LIR5 24-556): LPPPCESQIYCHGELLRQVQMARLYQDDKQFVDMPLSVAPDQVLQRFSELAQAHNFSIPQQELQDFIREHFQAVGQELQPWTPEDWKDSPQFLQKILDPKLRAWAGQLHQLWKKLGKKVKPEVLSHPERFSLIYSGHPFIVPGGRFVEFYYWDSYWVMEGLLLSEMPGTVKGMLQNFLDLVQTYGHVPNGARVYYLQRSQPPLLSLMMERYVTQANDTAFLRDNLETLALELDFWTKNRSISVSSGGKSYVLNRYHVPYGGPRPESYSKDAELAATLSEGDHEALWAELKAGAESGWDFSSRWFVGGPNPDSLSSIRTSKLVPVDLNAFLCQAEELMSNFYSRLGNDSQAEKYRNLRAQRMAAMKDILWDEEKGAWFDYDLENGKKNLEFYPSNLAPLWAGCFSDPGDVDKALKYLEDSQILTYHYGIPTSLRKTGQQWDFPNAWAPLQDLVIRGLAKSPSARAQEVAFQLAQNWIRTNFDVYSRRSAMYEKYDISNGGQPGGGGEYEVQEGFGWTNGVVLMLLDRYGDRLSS
# Protocol: as §1
# [5] = target: T4, α-L-Rhamnosidase (Penicillium decumbens, UniProt S7ZS15); test: glycosidase inhibition assay, P. decumbens α-L-rhamnosidase
# T4 sequence (S7ZS15 1-894): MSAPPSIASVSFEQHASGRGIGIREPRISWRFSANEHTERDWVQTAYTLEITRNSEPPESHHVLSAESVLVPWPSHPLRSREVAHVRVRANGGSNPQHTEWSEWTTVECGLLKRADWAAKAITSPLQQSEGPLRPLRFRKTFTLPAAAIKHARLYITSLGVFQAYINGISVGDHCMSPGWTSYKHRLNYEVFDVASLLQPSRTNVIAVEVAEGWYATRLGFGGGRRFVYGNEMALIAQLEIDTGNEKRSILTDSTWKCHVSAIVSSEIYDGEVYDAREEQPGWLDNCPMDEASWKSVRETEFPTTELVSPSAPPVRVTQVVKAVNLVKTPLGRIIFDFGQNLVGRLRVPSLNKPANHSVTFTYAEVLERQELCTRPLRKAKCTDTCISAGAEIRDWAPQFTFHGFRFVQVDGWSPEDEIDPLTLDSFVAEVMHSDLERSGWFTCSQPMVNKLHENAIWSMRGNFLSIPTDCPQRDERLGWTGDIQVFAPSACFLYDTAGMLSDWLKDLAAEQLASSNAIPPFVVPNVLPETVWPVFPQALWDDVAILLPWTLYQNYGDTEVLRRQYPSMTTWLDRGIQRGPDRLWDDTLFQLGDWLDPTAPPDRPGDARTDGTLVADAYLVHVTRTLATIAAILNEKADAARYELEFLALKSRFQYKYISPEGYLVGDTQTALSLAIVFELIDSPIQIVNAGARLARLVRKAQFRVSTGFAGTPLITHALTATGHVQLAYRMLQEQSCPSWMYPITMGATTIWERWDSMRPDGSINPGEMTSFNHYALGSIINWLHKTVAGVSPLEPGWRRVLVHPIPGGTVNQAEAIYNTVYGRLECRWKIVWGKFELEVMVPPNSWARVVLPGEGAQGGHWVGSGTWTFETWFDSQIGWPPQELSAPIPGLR
# Protocol: as §1
# [6] = target: T5, β-Glucuronidase (Escherichia coli, UniProt P05804); test: glycosidase inhibition assay, E. coli β-glucuronidase
# T5 construct: purchased Sigma-Aldrich Chemical Co
# Protocol: as §1
# [7] = target: T6, β-Glucuronidase (Bos taurus, UniProt A3KMY8); test: glycosidase inhibition assay, bovine liver β-glucuronidase; settings: for IC50: β-Glucuronidase, Bovine liver
# T6 construct: purchased Sigma-Aldrich Chemical Co; host or cells: bovine liver
# T6 sequence (A3KMY8 1-652): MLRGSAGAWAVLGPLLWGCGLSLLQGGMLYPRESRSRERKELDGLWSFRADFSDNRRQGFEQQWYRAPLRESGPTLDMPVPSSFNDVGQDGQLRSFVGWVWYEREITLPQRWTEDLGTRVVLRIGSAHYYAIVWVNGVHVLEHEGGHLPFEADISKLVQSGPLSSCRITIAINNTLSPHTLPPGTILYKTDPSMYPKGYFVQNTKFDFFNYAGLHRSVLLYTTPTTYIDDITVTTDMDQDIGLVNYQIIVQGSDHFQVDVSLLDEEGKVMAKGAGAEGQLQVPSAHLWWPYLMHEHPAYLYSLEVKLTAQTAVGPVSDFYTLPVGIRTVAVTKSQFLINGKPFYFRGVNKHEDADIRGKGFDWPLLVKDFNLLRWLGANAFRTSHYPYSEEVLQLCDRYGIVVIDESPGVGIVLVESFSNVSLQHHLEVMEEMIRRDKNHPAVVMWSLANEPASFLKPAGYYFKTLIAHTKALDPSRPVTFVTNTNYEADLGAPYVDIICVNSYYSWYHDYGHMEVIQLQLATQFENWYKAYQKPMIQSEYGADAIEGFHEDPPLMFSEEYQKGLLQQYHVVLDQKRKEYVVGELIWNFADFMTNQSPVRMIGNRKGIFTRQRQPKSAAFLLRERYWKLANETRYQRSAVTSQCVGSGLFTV
# Protocol: as §1
# T1 sequence (P53341 whole entry): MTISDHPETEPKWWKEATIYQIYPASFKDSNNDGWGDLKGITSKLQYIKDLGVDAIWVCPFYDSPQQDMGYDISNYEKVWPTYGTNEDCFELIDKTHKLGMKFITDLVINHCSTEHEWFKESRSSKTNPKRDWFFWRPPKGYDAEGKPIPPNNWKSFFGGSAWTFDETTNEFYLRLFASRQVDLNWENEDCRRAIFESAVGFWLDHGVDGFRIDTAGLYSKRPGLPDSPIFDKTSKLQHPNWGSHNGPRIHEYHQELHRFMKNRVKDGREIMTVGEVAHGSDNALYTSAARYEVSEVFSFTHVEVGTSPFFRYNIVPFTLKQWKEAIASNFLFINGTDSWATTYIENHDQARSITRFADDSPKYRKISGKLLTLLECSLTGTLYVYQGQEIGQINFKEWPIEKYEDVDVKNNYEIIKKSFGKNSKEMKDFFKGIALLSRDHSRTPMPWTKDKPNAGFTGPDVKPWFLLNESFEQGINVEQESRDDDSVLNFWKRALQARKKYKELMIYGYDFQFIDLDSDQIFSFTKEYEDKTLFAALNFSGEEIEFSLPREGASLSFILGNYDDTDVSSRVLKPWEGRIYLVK
# T5 sequence (P05804 whole entry): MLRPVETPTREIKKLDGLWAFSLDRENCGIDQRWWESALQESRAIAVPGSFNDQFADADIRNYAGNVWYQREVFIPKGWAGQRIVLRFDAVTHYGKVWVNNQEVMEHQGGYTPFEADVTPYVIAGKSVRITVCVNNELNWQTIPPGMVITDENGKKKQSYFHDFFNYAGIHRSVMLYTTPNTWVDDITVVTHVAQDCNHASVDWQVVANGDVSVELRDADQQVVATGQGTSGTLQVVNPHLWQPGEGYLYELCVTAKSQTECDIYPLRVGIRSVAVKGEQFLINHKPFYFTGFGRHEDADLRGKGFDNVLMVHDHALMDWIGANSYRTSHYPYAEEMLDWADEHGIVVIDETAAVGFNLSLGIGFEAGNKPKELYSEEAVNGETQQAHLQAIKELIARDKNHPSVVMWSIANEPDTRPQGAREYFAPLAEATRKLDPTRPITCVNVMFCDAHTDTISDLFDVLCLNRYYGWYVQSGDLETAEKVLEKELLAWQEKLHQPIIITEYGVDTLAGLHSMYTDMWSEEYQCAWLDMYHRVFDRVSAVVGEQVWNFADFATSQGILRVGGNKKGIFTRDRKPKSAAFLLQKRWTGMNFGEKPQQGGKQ
# T2 sequence (Q42656 16-378): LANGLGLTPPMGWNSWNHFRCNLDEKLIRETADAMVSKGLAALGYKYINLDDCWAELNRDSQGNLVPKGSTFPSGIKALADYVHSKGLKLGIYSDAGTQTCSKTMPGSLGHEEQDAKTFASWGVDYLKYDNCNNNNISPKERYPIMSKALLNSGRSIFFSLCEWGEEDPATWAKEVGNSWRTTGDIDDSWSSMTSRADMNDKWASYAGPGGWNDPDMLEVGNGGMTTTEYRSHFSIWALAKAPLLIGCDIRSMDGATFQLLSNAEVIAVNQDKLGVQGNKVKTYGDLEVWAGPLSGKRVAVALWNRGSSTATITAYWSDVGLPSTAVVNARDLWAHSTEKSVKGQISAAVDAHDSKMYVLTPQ
Compound,inhibition at 100 µM [1] [%],IC50 [1] [µM],IC50 [2] [µM],inhibition % [2] [%],inhibition at 100 µM [3] [%],IC50 [3] [µM],inhibition at 100 µM [4] [%],inhibition at 100 µM [5] [%],IC50 [6] [µM],inhibition at 100 µM [7] [%],IC50 [7] [µM],inhibition at 100 µM [6] [%]
"OCCCC(O)CCCCCCCCCC1NC(CO)C(O)C1O [2,10-di-epi-3, (2S,3R,4R,5R)-2-hydroxymethyl-3,4-dihydroxyl-5-((10S)-10,13-(dihydroxyl)dec-1-yl) pyrrolidine]",3.2,> 100,> 100,10.9,0,> 100,0,4.7,80,1.7,> 100,–
"OCCC[C@@H](O)CCCCCCCCC[C@H]1N[C@@H](CO)[C@@H](O)[C@@H]1O [2-epi-3, (2S,3R,4R,5R)-2-hydroxymethyl-3,4-dihydroxyl-5-((10R)-10,13-(dihydroxyl)dec-1-yl) pyrrolidine]",1.6,> 100,> 100,8.6,0,> 100,0,3.3,73,5.2,> 100,–
"OCCC[C@H](O)CCCCCCCCC[C@H]1N[C@H](CO)[C@@H](O)[C@@H]1O [10’-epi-3, (2R,3R,4R,5R)-2-hydroxymethyl-3,4-dihydroxyl-5-((10S)-10,13-(dihydroxyl)dec-1-yl) pyrrolidine]",4.6,> 100,> 100,29.1,0,> 100,0,4.7,20,17.2,> 100,–
"OCCC[C@@H](O)CCCCCCCCC[C@H]1N[C@H](CO)[C@@H](O)[C@@H]1O [compound 3, (2R,3R,4R,5R)-2-hydroxymethyl-3,4-dihydroxyl-5-((10R)-10,13-(dihydroxyl)dec-1-yl)pyrrolidine]",2.6,> 100,> 100,10.0,0,> 100,0,6.1,86,18.4,> 100,–
"OCCC[C@@H](O)CCCCCCCCC[C@@H]1N[C@@H](CO)[C@@H](O)[C@H]1O [ent-3,10-di-epi-3]",6.6,> 100,> 100,7.3,0,> 100,3.8,11.4,42,14.9,> 100,–
"OCCC[C@H](O)CCCCCCCCC[C@@H]1N[C@@H](CO)[C@H](O)[C@H]1O [ent-3, (2S,3S,4S,5S)-2-hydroxymethyl-3,4-dihydroxyl-5-((10S)-10,13-(dihydroxyl)dec-1-yl) pyrrolidine]",1.9,> 100,> 100,9.6,0.3,> 100,2.1,13.3,> 100,2.3,> 100,44.3
"OCCC[C@H](O)CCCCCCCCC[C@@H]1N[C@@H](CO)[C@@H](O)[C@H]1O [ent-3-epi-3, (2S,3R,4S,5S)-2-hydroxymethyl-3,4-dihydroxyl-5-((10S)-10,13-(dihydroxyl)dec-1-yl) pyrrolidine]",0,> 100,> 100,4.6,0,> 100,0,15.2,> 100,0,> 100,28.7
OCCC[C@@H](O)CCCCCCCCC[C@@H]1N[C@@H](CO)[C@H](O)[C@H]1O [ent-10’-epi-3],1.9,> 100,> 100,8.0,12.2,> 100,0,1.8,> 100,14.9,> 100,36.2
